The record followed here is patent EP4635969A1, “NOVEL GLUCOCORTICOID, METHOD FOR PREPARING SAME, AND USE THEREOF” (Tianjin Pharmaceutical Biotechnology Co., Ltd., priority 2022, dated 2024).

Read-outs that look alike come from different tables or passages of the source.

For this test, the target named is T1, progesterone receptor (PR) (Homo sapiens, UniProt P06401).
T1 sequence (P06401 678-933): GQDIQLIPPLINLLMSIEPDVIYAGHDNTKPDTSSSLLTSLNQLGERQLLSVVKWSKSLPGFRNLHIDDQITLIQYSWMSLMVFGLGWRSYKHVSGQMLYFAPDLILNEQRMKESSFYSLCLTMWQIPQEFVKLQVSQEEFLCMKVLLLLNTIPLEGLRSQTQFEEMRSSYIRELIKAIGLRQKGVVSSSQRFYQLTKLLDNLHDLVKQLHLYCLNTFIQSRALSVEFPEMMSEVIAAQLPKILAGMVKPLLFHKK
Briefly: Assay for agonist activity on progesterone receptor (luciferase reporter, HEK293 cells transfected with pBIND-PR plasmid). It counts as cell-based. As to conditions: for Target selectivity PR/GR: ratio of EC50 values. The method, boiled down:
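HEK293 cells transiently transfected with pBIND-MR or pBIND-PR, seeded in phenol red-free DMEM with 5% charcoal-stripped serum. Compounds tested as 12-point 4-fold dilutions from 50 µM in duplicate, 0.1% DMSO blank. Luciferase luminescence read, EC50 by nonlinear fit.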

Where [1] appears, read: EC50 of agonist activity, HEK293 reporter cells, top concentration 50 µM, read-out: Nuclear receptor enzyme activity (nM) PR.

For `C[C@]12C=CC(=O)C=C1CC[C@H]1[C@@H]3C[C@H]4OC(c5ccc(COC6CCOC6=O)cc5)O[C@@]4(C(=O)CO)[C@@]3(C)C[C@H](O)[C@@]12F` (stereo partly drawn) [Compound 16, (6aS,6bR,7S,8aS,8bS,11aR,12aS,12bS)-6b-Fluoro-7-hydroxy-8b-(2-hydroxyacetyl)-6a,8a-dimethyl-10-(4-(((2-oxotetrahydrofuran-3-yl)oxy)methyl)phenyl)-1,2,6a,6b,7,8,8a,8b,11a,12,12a,12b-do decahydro-4H-naphtho[2',1':4,5]indeno[1,2-d][1,3]dioxol-4-one], the EC50 was above 50000 nM and the “Target selectivity PR/GR” value is recorded as > 1.2×10^5.
For `C[C@]12C=CC(=O)C=C1CC[C@H]1[C@@H]3C[C@H]4OC(c5ccc(CSC6CCOC6=O)cc5)O[C@@]4(C(=O)CO)[C@@]3(C)C[C@H](O)[C@@]12F` (stereo partly drawn) [Compound 17, (6aS,6bR,7S,8aS,8bS,11aR,12aS,12bS)-6b-Fluoro-7-hydroxy-8b-(2-hydroxyacetyl)-6a,8a-dimethyl-10-(4-(((2-oxotetrahydrofuran-3-yl)thio)methyl)phenyl)-1,2,6a,6b,7,8,8a,8b,11a,12,12a,12b-do decahydro-4H-naphtho[2',1':4,5]indeno[1,2-d][1,3]dioxol-4-one], the “Target selectivity PR/GR” value is given as > 1.7×10^5. Under setting [1], the EC50 was above 50000 nM.
In the case of `C[C@]12C=CC(=O)C=C1CC[C@H]1[C@@H]3C[C@H]4OC(c5ccc(COC6CCOC6=O)cc5)O[C@@]4(C(=O)CO)[C@@]3(C)C[C@H](O)[C@@]12Cl` (stereo partly drawn) [Compound 22, (6aS,6bR,7S,8aS,8bS,11aR,12aS,12bS)-6b-Chloro-7-hydroxy-8b-(2-hydroxyacetyl)-6a,8a-dimethyl-10-(4-(((2-oxotetrahydrofuran-3-yl)oxy)methyl)phenyl)-1,2,6a,6b,7,8,8a,8b,11a,12,12a,12b-do decahydro-4H-naphtho[2',1':4,5]indeno[1,2-d][1,3]dioxol-4-one], the EC50 is above 50000 nM and the “Target selectivity PR/GR” value is > 9.1×10^4.
Take `C[C@]12C=CC(=O)C=C1CC[C@H]1[C@@H]3C[C@H]4OC(c5ccc(CSC6CCOC6=O)cc5)O[C@@]4(C(=O)CO)[C@@]3(C)C[C@H](O)[C@@]12Cl` (stereo partly drawn) [Compound 23, (6aS,6bR,7S,8aS,8bS,11aR,12aS,12bS)-6b-Chloro-7-hydroxy-8b-(2-hydroxyacetyl)-6a,8a-dimethyl-10-(4-(((2-oxotetrahydrofuran-3-yl)thio)methyl)phenyl)-1,2,6a,6b,7,8,8a,8b,11a,12,12a,12b-do decahydro-4H-naphtho[2',1':4,5]indeno[1,2-d][1,3]dioxol-4-one]: the “Target selectivity PR/GR” value is given as > 2.4×10^5. Also, the EC50 under setting [1] was above 50000 nM.
As to `C[C@]12C=CC(=O)C=C1[C@@H](F)C[C@H]1[C@@H]3C[C@H]4OC(c5ccc(CSC6CCOC6=O)cc5)O[C@@]4(C(=O)SCF)[C@@]3(C)C[C@H](O)[C@@]12F` (stereo partly drawn) [Compound 34, S-(Fluoromethyl) (2S,6aS,6bR,7S,8aS,8bS,11aR,12aS,12bS)-2,6b-difluoro-7-hydroxy-6a,8a-dimethyl-4-oxo-10-(4-( ((2-oxotetrahydrofuran-3-yl)thio)methyl)phenyl)-1,2,4,6a,6b,7,8,8a,11a,12,12a,12b-dodecahydro-8bH-naphtho[2',1':4,5]indeno[1,2-d][1,3]dioxole-8b-carbothioate], the EC50 is above 50000 nM and the “Target selectivity PR/GR” value is > 5.0×10^5.
Take `C[C@]12C=CC(=O)C=C1[C@@H](F)C[C@H]1[C@@H]3C[C@H]4OC(c5ccc(CSC6CCOC6=O)cc5)O[C@@]4(C(=O)SCC#N)[C@@]3(C)C[C@H](O)[C@@]12F` (stereo partly drawn) [Compound 35, S-(Cyanomethyl) (2S,6aS,6bR,7S,8aS,8bS,11aR,12aS,12bS)-2,6b-difluoro-7-hydroxy-6a,8a-dimethyl-4-oxo-10-(4-( ((2-oxotetrahydrofuran-3-yl)thio)methyl)phenyl)-1,2,4,6a,6b,7,8,8a,11a,12,12a,12b-dodecahydro-8bH-naphtho[2',1':4,5]indeno[1,2-d][1,3]dioxole-8b-carbothioate]: the EC50 was above 50000 nM and the “Target selectivity PR/GR” value is > 2.4×10^5.
For the compound `C[C@]12C=CC(=O)C=C1[C@@H](F)C[C@H]1[C@@H]3C[C@H]4OC(c5ccc(CSC6CCOC6=O)cc5)O[C@@]4(C(=O)OCF)[C@@]3(C)C[C@H](O)[C@@]12F` (stereo partly drawn) [Compound 36, Fluoromethyl (2S,6aS,6bR,7S,8aS,8bS,11aR,12aS,12bS)-2,6b-difluoro-7-hydroxy-6a,8a-dimethyl-4-oxo-10-(4-( ((2-oxotetrahydrofuran-3-yl)thio)methyl)phenyl)-1,2,4,6a,6b,7,8,8a,11a,12,12a,12b-dodecahydro-8bH-naphtho[2',1':4,5]indeno[1,2-d][1,3]dioxole-8b-carboxylate], the EC50 was above 50000 nM and the “Target selectivity PR/GR” value was > 4.2×10^5.
The matching figures for `C[C@]12C=CC(=O)C=C1CC[C@H]1[C@@H]3C[C@H]4OC(c5ccc(CSC6CCOC6=O)nc5)O[C@@]4(C(=O)CO)[C@@]3(C)C[C@H](O)[C@@]12F` (stereo partly drawn) [Compound 47, (6aS,6bR,7S,8aS,8bS,11aR,12aS,12bS)-6b-Fluoro-7-hydroxy-8b-(2-hydroxyacetyl)-6a,8a-dimethyl-10-(6-(((2-oxotetrahydrofuran-3-yl)thio)methyl)pyridin-3-yl)-1,2,6a,6b,7,8,8a,8b,11a,12,12a,12 b-dodecahydro-4H-naphtho[2',1':4,5]indeno[1,2-d][1,3]dioxol-4-one]: above 50000 nM and > 1.5×10^5.
